How the values were obtained:
[1] = Ratio of bioavailability in rat blood and rat brain.; format: functional, organism-based
[2] = Ratio of bioavailability in rat heart and rat blood.; format: functional, organism-based
[3] = test system: V79; experiment: Verapamil index represents the ratio of net uptake in the presense of verapamil over control in V79 cell lines.; format: functional, cell-based; settings: Cricetulus griseus
[4] = test system: V79; experiment: Net accumulation of the [99mTc]Isonitrile complex was measured in V79 cell lines in the presence of Verapamil.; format: functional, cell-based; settings: Cricetulus griseus
[5] = Ratio of bioavailability in rat adrenal and rat blood.; format: functional, organism-based
[6] = test system: V79; experiment: Net accumulation of the [99mTc]Isonitrile complex was measured in 77A cell lines in the presence of Verapamil.; format: functional, cell-based
[7] = test system: V79; experiment: Verapamil index represents the ratio of net uptake in the presense of verapamil over control in 77A cell lines.; format: functional, cell-based
[8] = test system: Rattus norvegicus; experiment: Biodistribution values represent the mean % id/organ for paired rats 30 min post intravenous injection complex in Skin; format: ADME, organism-based; settings: in vivo, 0.5 h
[9] = test system: Rattus norvegicus; experiment: Biodistribution values represent the mean % id/organ for paired rats 30 min post intravenous injection complex in Fat; format: ADME, organism-based; settings: in vivo, 0.5 h
[10] = test system: Rattus norvegicus; experiment: Biodistribution values represent the mean % id/organ for paired rats 30 min post intravenous injection complex in Liver; format: ADME, organism-based; settings: in vivo, 0.5 h
[11] = test system: Rattus norvegicus; experiment: Biodistribution values represent the mean % id/organ for paired rats 30 min post intravenous injection complex in Kidney; format: ADME, organism-based; settings: in vivo, 0.5 h
[12] = test system: Rattus norvegicus; experiment: Biodistribution values represent the mean % id/organ for paired rats 30 min post intravenous injection complex in Muscles; format: ADME, organism-based, Muscle tissue; settings: in vivo, 0.5 h
[13] = test system: Rattus norvegicus; experiment: Biodistribution values represent the mean % id/organ for paired rats 30 min post intravenous injection complex in Lungs; format: ADME, organism-based, Lung; settings: in vivo, 0.5 h
[14] = test system: Rattus norvegicus; experiment: Biodistribution values represent the mean % id/organ for paired rats 30 min post intravenous injection complex in Brain; format: ADME, organism-based; settings: in vivo, 0.5 h
[15] = test system: Rattus norvegicus; experiment: Biodistribution values represent the mean % id/organ for paired rats 30 min post intravenous injection complex in Spleen; format: ADME, organism-based; settings: in vivo, 0.5 h
[16] = test system: Rattus norvegicus; experiment: Biodistribution values represent the mean % id/organ for paired rats 30 min post intravenous injection complex in Blood; format: ADME, organism-based; settings: in vivo, 0.5 h
[17] = test system: Rattus norvegicus; experiment: Biodistribution values represent the mean % id/organ for paired rats 30 min post intravenous injection complex in GI; format: ADME, organism-based; settings: in vivo, 0.5 h
[18] = test system: Rattus norvegicus; experiment: Biodistribution values represent the mean % id/organ for paired rats 30 min post intravenous injection complex in Adrenal; format: ADME, organism-based; settings: in vivo, 0.5 h
[19] = test system: Rattus norvegicus; experiment: Biodistribution values represent the mean % id/organ for paired rats 30 min post intravenous injection complex in Heart; format: ADME, organism-based; settings: in vivo, 0.5 h
[20] = test system: Rattus norvegicus; experiment: Biodistribution values represent the mean % id/organ for paired rats 30 min post intravenous injection complex in Bone; format: ADME, organism-based, Bone element; settings: in vivo, 0.5 h

Substance	Ratio [1]	Ratio [2]	Ratio [5]	Net accumulation ([6]; Cricetulus griseus)	Verapamil index ([7]; Cricetulus griseus)	other results
Hexakis[5-Methoxy-2-methyl-4-nitrobenzeneisonitrile]technetium Complex	28	0.4	1.8	–	–	Verapamil index [3]: 0.87; Net accumulation [4]: 31.7
Hexakis[4-Acetylbenzeneisonitrile]technetium Complex	17	0.6	22	826	1.73	–
Hexakis[3,4-(Methylenedioxy)-alpha-tolueneisonitrile]technetium Complex	36	0.6	6.9	–	–	Verapamil index [3]: 1.11; Net accumulation [4]: 287
Hexakis[2-Methoxy-5-nitrobenzeneisonitrile]technetium Complex [listing 1 of 2 here]	38	0.5	0.9	–	–	Verapamil index [3]: 0.96; Net accumulation [4]: 58.3
Hexakis[3-Acetamidobenzeneisonitrile]technetium Complex [listing 1 of 2 here]	15	0.7	8.8	147	0.77	–
Hexakis[4-Cyanobenzeneisonitrile]technetium Complex	31	0.3	1.2	161	1.61	–
Hexakis[3-(hydroxymethyl)benzeneisonitrile]technetium Complex	27	0.7	6.2	–	–	Verapamil index [3]: 2.38; Net accumulation [4]: 257
Hexakis[3,4,5-Trimethoxy-alpha-tolueneisonitrile]technetium Complex	6.7	5.5	24	57	0.81	–
Hexakis[3,5-Dimethoxy-alpha-tolueneisonitrile]technetium Complex [listing 1 of 2 here]	28	0.4	3.1	315	2.19	–
Hexakis[4-Nitrobenzeneisonitrile]technetium Complex	39	0.3	0.6	29.1	1.15	–
Hexakis[3,4-(Methylenedioxy)benzeneisonitrile]technetium Complex	9.3	0.4	14	93.9	1.87	–
Hexakis[3-Nitrobenzeneisonitrile]technetium Complex	31	0.4	0.6	–	–	Verapamil index [3]: 0.99; Net accumulation [4]: 14
Hexakis[3,4-Dimethoxy-alpha-tolueneisonitrile]technetium Complex [listing 1 of 2 here]	19	0.6	7.9	362	1.53	–
Hexakis[3,5-Dimethoxybenzeneisonitrile]technetium Complex	7.5	1	1.7	15.3	1.84	–
Hexakis[2-(4-Methoxyphenyl)ethaneisonitrile]technetium Complex [listing 1 of 2 here]	–	–	–	–	–	ID/organ [8]: 0.41%; ID/organ [9]: 0.26%; ID/organ [10]: 81.1%; ID/organ [11]: 0.19%; ID/organ [12]: 1.99%; ID/organ [13]: 3.93%; ID/organ [14]: 0%; ID/organ [15]: 2.94%; ID/organ [16]: 0.79%; ID/organ [17]: 1.86%; ID/organ [18]: 0.03%; ID/organ [19]: 0.15%; ID/organ [20]: 3.44%
Hexakis[4-Methoxy-alpha-tolueneisonitrile]technetium Complex	30	0.3	2.5	359	2.6	–
Hexakis[3,4-Dimethoxy-alpha-tolueneisonitrile]technetium Complex [listing 2 of 2 here]	–	–	–	–	–	ID/organ [8]: 1.35%; ID/organ [9]: 0.21%; ID/organ [10]: 44.2%; ID/organ [11]: 2.25%; ID/organ [12]: 2.48%; ID/organ [13]: 1.22%; ID/organ [14]: 0.02%; ID/organ [15]: 0.34%; ID/organ [16]: 3.27%; ID/organ [17]: 33.5%; ID/organ [18]: 0.07%; ID/organ [19]: 0.1%; ID/organ [20]: 4.72%
Hexakis[2-(4-Methoxyphenyl)ethaneisonitrile]technetium Complex [listing 2 of 2 here]	26	3.5	13	494	3.09	–
Hexakis-(2-methoxyisobutylisonitrile)Technetium (99mTc-MIBI)	0.7	120	158	102	32.9	Verapamil index [3]: 3.91; Net accumulation [4]: 70.4
Hexakis[2-(3,4-Dimethoxyphenyl)ethaneisonitrile]technetium Complex	23	0.4	4.1	–	–	Net accumulation [6]: 146; Verapamil index [7]: 3.3
Hexakis[2-Methoxy-5-nitrobenzeneisonitrile]technetium Complex [listing 2 of 2 here]	–	–	–	–	–	ID/organ [8]: 2.88%; ID/organ [9]: 0.55%; ID/organ [10]: 32.5%; ID/organ [11]: 2.74%; ID/organ [12]: 6.82%; ID/organ [13]: 0.51%; ID/organ [14]: 0.04%; ID/organ [15]: 1.25%; ID/organ [16]: 14.1%; ID/organ [17]: 19.4%; ID/organ [18]: 0.04%; ID/organ [19]: 0.35%; ID/organ [20]: 9.58%
Hexakis[3-Acetamidobenzeneisonitrile]technetium Complex [listing 2 of 2 here]	–	–	–	–	–	ID/organ [8]: 0.17%; ID/organ [9]: 0.03%; ID/organ [10]: 86.9%; ID/organ [11]: 0.38%; ID/organ [12]: 0.53%; ID/organ [13]: 1.45%; ID/organ [14]: 0.01%; ID/organ [15]: 1.5%; ID/organ [16]: 0.87%; ID/organ [17]: 2.12%; ID/organ [18]: 0.02%; ID/organ [19]: 0.03%; ID/organ [20]: 3.48%
Hexakis[3,5-Dimethoxy-alpha-tolueneisonitrile]technetium Complex [listing 2 of 2 here]	–	–	–	–	–	ID/organ [8]: 0.43%; ID/organ [9]: 0.2%; ID/organ [10]: 75.9%; ID/organ [11]: 0.3%; ID/organ [12]: 1.82%; ID/organ [13]: 0.87%; ID/organ [14]: 0.02%; ID/organ [15]: 3.35%; ID/organ [16]: 5.06%; ID/organ [17]: 2.22%; ID/organ [18]: 0.04%; ID/organ [19]: 0.12%; ID/organ [20]: 3.63%
Hexakis[2-(3,4,5-Trimethoxyphenyl)ethaneisonitrile]technetium Complex	5	9	54	101	1.07	–
Hexakis[3,4-Dimethoxybenzeneisonitrile]technetium Complex	26	0.7	7.3	397	3.52	–

Source: ChEMBL document CHEMBL1128489, “Novel hexakis(areneisonitrile)technetium(I) complexes as radioligands targeted to the multidrug resistance P-glycoprotein” (J Med Chem, 1995)
